Experimental data: US12396936B2, “Antimicrobial composition for tackling malodour” (Conopco, Inc., priority 2020, dated 2025)

Test system: S. hominis ATCC 27844
Test: Malodour assay using Lead acetate method (H2S blackening of lead acetate paper, ΔE by reflectometer)
Type: cell-based
Conditions: active wt % as printed per example; TSB with 0.1% L-cysteine-HCl, 37° C. overnight, triplicates; calculated from ΔE; control = 100
Description: The actives as shown in Table—1 below were subjected to malodour reduction assay as described below: • Malodour assay using Lead acetate method: Preparation of Bacterial Culture:
The test organisms was grown on TSA (Tryptic Soya Agar) plates overnight (22±2 hr). The organism was not more than 3 passages removed from the original source. The cell number was adjusted by re-suspending it in a suitable amount of physiological saline sufficient to achieve the required cell number based on optical density of the cells. The optical density (OD at 620 nm) of the cells were standardized to the cell number for the test organism using a spectrophotometer. A minimum final suspension of 1.0×10^8 CFU/mL was achieved by adjusting the OD to 0.2 in saline for the malodour assay.
A 1% Lead acetate solution was made in distilled water. […]
The malodour assay was adapted from the method of Moore et al, 2003 and modified into a 96 well plate format. […] The intensity of the colour was recorded using a reflectometer as L*a*b* values.
The difference between the initial and final L*a*b* values ΔE, was used to quantify malodour formation.) ΔE=√{square root over ((Li−Lf)^2+(ai−af)^2+(bi−bf)^2)}
The percentage malodour was calculated from ΔE measured using the above assay for the various actives or combinations.

## CCCCCCc1ccc(O)cc1O [B, Hexyl resorcinol]
  Malodour generation (%): 96%
